Assay [1] relates to ex vivo calcium ionophore-stimulated LTB4 production in whole blood. Briefly: Murine arachidonic acid-induced inflammation model: ex vivo stimulated LTB4 production in blood. To be noted: Mus musculus; 30 mg/kg oral gavage; blood diluted 1:1, A23187 stimulated ex vivo; percent inhibition of LTB4 production; read-out: % Inh. LTB4. Details: species or system Balb/c mice.
Assay [2] addresses T1, recombinant human LTA4 hydrolase (rhLTA4H) (Homo sapiens, UniProt P09960).
T1 construct: made in house; host or cells: Spodoptera frugiperda (Sf-9) cells, baculovirus (pFastBac1)
T1 sequence (P09960 1-611): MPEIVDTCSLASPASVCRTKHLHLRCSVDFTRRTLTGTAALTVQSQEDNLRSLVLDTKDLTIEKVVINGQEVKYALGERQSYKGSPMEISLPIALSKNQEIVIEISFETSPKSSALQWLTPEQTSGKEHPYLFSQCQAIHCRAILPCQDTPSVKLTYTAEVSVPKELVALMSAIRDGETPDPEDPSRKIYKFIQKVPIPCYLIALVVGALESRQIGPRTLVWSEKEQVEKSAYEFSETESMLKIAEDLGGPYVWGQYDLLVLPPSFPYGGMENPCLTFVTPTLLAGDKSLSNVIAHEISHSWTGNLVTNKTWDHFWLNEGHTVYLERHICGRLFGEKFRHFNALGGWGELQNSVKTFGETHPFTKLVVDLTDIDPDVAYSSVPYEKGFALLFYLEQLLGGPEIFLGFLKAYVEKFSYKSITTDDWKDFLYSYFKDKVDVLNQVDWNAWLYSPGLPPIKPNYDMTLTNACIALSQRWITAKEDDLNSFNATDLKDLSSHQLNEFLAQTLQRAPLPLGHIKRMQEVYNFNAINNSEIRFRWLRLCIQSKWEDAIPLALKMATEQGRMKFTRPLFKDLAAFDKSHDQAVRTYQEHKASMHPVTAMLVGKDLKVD
In words: Recombinant human LTA4 hydrolase assay for LTA4 hydrolase inhibitor activity. Format: biochemical. A digest of the protocol: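 Baculovirus/Sf-9-expressed human LTA4H (10 ng) was preincubated 10 min at rt with compound in assay buffer (10% DMSO in compound dilution), then reacted 30 min at rt with LTA4 free acid made from its methyl ester. LTB4 produced was measured by ELISA after dilution; IC50 from non-linear regression, single or averaged determinations.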

The subject of assay [3] is LTB4 production in murine blood (LTA4H). Briefly: LTB4 production by calcium ionophore-stimulated murine blood for LTA4H inhibitor activity. Format: cell-based, CD-1 mice. As to conditions: Mus musculus. A digest of the protocol:
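Heparinized blood from CD-1 mice was preincubated with compound for 15 min at 37° C, then stimulated with calcium ionophore A23187 (final 7 μg/mL) for 30 min. Centrifugation stopped the reaction, and LTB4 in the supernatant was measured by enzyme immunoassay. Values are single determinations or means of two or more.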

Assay [4] deals with arachidonic acid-induced neutrophil influx in murine ear tissue. Briefly: Murine arachidonic acid-induced inflammation model: neutrophil influx (myeloperoxidase) in ear. Format: in vivo, Balb/c mice. As to conditions: Mus musculus, read-out: % Inh. MPO.
[5] abbreviates: rhLTA4H, LTB4 by immunoassay, single determination or average of two or more, mark after value = form tested: ′ free base, ″ hydrochloride, ^ formate, read-out: IC50.
[6] abbreviates: murine blood diluted 1 in 15, A23187 stimulated, single determination or average, mark after value = form tested: ′ free base, ″ hydrochloride, ^ formate, read-out: IC50.
Where [7] appears, read: 30 mg/kg oral gavage, 60 min before topical arachidonic acid, ear biopsy after 3 h, percent inhibition of neutrophil influx.

SMILES strings stand for the structures. Structures can show the parent of a compound that is named as a salt. Where two headings read alike, the source gives them in different places.

Broadly, the IC50 is the concentration that inhibits the measured activity by half. With `NC(=O)N1C[C@H]2C[C@@H]1CN2Cc1coc2cc(Oc3nc4ncccc4s3)ccc12` [Example 160, (1R,4R)-5-[6-(Thiazolo[4,5-b]pyridin-2-yloxy)-benzofuran-3-ylmethyl]-2,5-diaza-bicyclo[2.2.1]heptane-2-carboxylic acid amide], the inhibition at 30 mg/kg is 90% in assay [1] and 77% in assay [4] (setting [7]). Further, the results for the IC50 in assay [2] (setting [5]) and in assay [3] (setting [6]) were 5 nM and 49 nM, respectively.
On the same counts, the results for `CC(=O)N1CCN(CCc2coc3cc(Oc4nc5ncccc5s4)ccc23)CC1` [Example 257, 1-(4-{2-[6-(Thiazolo[4,5-b]pyridin-2-yloxy)-benzofuran-3-yl]-ethyl}-piperazin-1-yl)-ethanone] are 68.7%, 87%, 3 nM and 169 nM.
`CC(=O)N1CCN(Cc2coc3cc(Oc4nc5ncccc5s4)ccc23)CC1` [Example 196, 1-{4-[6-(Thiazolo[4,5-b]pyridin-2-yloxy)-benzofuran-3-ylmethyl]-piperazin-1-yl}-ethanone formate]: the inhibition at 30 mg/kg in assay [1] stood at 91%; in assay [4] (Neutrophil), 93%. Moreover, the IC50 worked out at 11 nM in assay [2] (setting [5]) and 38 nM in assay [3] (setting [6]).
Turning to `c1cnc2sc(Oc3ccc4c(CN5CCOCC5)c[nH]c4c3)nc2n1` [Example 56, 2-(3-Morpholin-4-ylmethyl-1H-indol-6-yloxy)-thiazolo[4,5-b]pyrazine], the values for the inhibition at 30 mg/kg in assay [1] and in assay [4] (setting [7]) were 40% and 45%, respectively. Besides, the IC50 in assay [2] (setting [5]) was 81 nM; in assay [3] (setting [6]) it was 290 nM.
For the molecule `CC(=O)N1C[C@@H]2C[C@H]1CN2Cc1cc2ccc(Oc3nc4ncccc4s3)cc2o1` [Example 168, (1S,4S)-1-{5-[6-(Thiazolo[4,5-b]pyridin-2-yloxy)-benzofuran-2-ylmethyl]-2,5-diaza-bicyclo[2.2.1]hept-2-yl}-ethanone], the inhibition at 30 mg/kg in assay [1] was 70%; in assay [4] (setting [7]) it was 74%. For the same molecule, the IC50 in assay [2] (setting [5]) was found to be 36 nM; in assay [3] (setting [6]), 210 nM.
For `CC(=O)N1CCC2(CCN(Cc3cc4cc(Oc5nc6ncccc6s5)ccc4o3)CC2)CC1` [Example 167, 1-{9-[5-(Thiazolo[4,5-b]pyridin-2-yloxy)-benzofuran-2-ylmethyl]-3,9-diaza-spiro[5.5]undec-3-yl}-ethanone], in that order: 78%, 77%, 88 nM and 220 nM.
`O=C(O)C1CCN(Cc2coc3cc(Oc4nc5ccccc5s4)ccc23)CC1` [Example 248, 1-[6-(Benzothiazol-2-yloxy)-benzofuran-3-ylmethyl]-piperidine-4-carboxylic acid formate]: the inhibition at 30 mg/kg was 83% in assay [1] and 90% in assay [4] (Neutrophil). Also, the IC50 in assay [2] (setting [5]) is 12 nM; in assay [3] it was 20 nM.
As to `CC(=O)N1C[C@@H]2C[C@H]1CN2CCc1coc2cc(Oc3nc4ncccc4s3)ccc12` [Example 258, (1S,4S)-1-(5-{2-[6-(Thiazolo[4,5-b]pyridin-2-yloxy)-benzofuran-3-yl]-ethyl}-2,5-diaza-bicyclo[2.2.1]hept-2-yl)-ethanone], the inhibition at 30 mg/kg in assay [1] was 70.9%; in assay [4] (setting [7]), 72%. In addition, the IC50 in assay [2] (setting [5]) is 22 nM; in assay [3] (setting [6]), 88 nM.
As to `CC(=O)N1C[C@@H]2CC[C@H]1CN2Cc1cc2ncc(Oc3nc4ncccc4s3)cc2o1` [Example 339, (1S,4S)-1-{5-[6-(Thiazolo[4,5-b]pyridin-2-yloxy)-furo[3,2-b]pyridin-2-ylmethyl]-2,5-diaza-bicyclo[2.2.2]oct-2-yl}-ethanone formate], the inhibition at 30 mg/kg in assay [1] and in assay [4] (Neutrophil) was 50% throughout. In addition, the IC50 in assay [2] (setting [5]) is 12 nM; in assay [3] (setting [6]) it was 70 nM.
As for `CCN(CC)Cc1cc2ccc(Oc3nc4ncccc4s3)cc2o1` [Example 198, Diethyl-[6-(thiazolo[4,5-b]pyridin-2-yloxy)-benzofuran-2-ylmethyl]-amine formate], the inhibition at 30 mg/kg in assay [1] was determined as 80%; in assay [4] (Neutrophil), 74%. Besides, the IC50 amounted to 11 nM in assay [2] (setting [5]) and 110 nM in assay [3] (setting [6]).
`CC(=O)N1CCCN(Cc2coc3cc(Oc4nc5ncccc5s4)ccc23)CC1` [Example 182, 1-{4-[6-(Thiazolo[4,5-b]pyridin-2-yloxy)-benzofuran-3-ylmethyl]-[1,4]diazepan-1-yl}-ethanone]: the inhibition at 30 mg/kg in assay [1] is 85%; in assay [4] (setting [7]), 67%. Also, the IC50 in assay [2] (setting [5]) worked out at 9 nM; in assay [3] (setting [6]), 39 nM.
`CC(C)(O)C1CCN(Cc2coc3cc(Oc4nc5ncccc5s4)ccc23)CC1` [Example 218, 2-{1-[6-(Thiazolo[4,5-b]pyridin-2-yloxy)-benzofuran-3-ylmethyl]-piperidin-4-yl}-propan-2-ol]: the inhibition at 30 mg/kg in assay [1] was found to be 83%; in assay [4] (setting [7]), 98%. Moreover, the IC50 is 5 nM in assay [2] (setting [5]) and 53 nM in assay [3] (setting [6]).
For `CC(=O)N1C[C@@H]2CC[C@H]1CN2Cc1cc2cc(Oc3nc4ncccc4s3)ccc2o1` [Example 169, meso-1-{5-[5-(Thiazolo[4,5-b]pyridin-2-yloxy)-benzofuran-2-ylmethyl]-2,5-diaza-bicyclo[2.2.2]oct-2-yl}-ethanone], in that order: 85%, 92%, 3 nM and 23 nM.
On to `CC(=O)N[C@H]1C[C@@H]2C[C@H]1CN2Cc1cc2cc(Oc3nc4ncccc4s3)ccc2o1` [Example 188, (1S,4S,5S)—N-{2-[5-(Thiazolo[4,5-b]pyridin-2-yloxy)-benzofuran-2-ylmethyl]-2-aza-bicyclo[2.2.1]hept-5-yl}-acetamide], for which the results for the inhibition at 30 mg/kg in assay [1] and in assay [4] (setting [7]) were 73% and 78%, respectively. Moreover, the IC50 was determined as 26 nM in assay [2] (setting [5]) and 63 nM in assay [3] (setting [6]).
On to `C[C@H]1COCCN1Cc1coc2cc(Oc3nc4ncccc4s3)ccc12` [Example 159, (S)-2-[3-(3-Methyl-morpholin-4-ylmethyl)-benzofuran-6-yloxy]-thiazolo[4,5-b]pyridine], for which the inhibition at 30 mg/kg in assay [1] was 83%; in assay [4] (setting [7]), 78%. Moreover, the IC50 amounted to 16 nM in assay [2] (setting [5]) and 79 nM in assay [3] (setting [6]).
In the case of `CC(=O)N1C[C@H]2CC[C@@H](C1)N2Cc1cc2ccc(Oc3nc4ncccc4s3)cc2o1` [Example 119, meso-1-{8-[6-(Thiazolo[4,5-b]pyridin-2-yloxy)-benzofuran-2-ylmethyl]-3,8-diaza-bicyclo[3.2.1]oct-3-yl}-ethanone], the inhibition at 30 mg/kg in assay [1] was 78%; in assay [4] (setting [7]) it was 83%. The IC50 turned out to be 36 nM in assay [2] (setting [5]) and 220 nM in assay [3] (setting [6]).
On the same counts, the results for `CNC(=O)C1CCN(Cc2coc3cc(Oc4nc5ncccc5s4)ccc23)CC1` [Example 214, 1-[6-(Thiazolo[4,5-b]pyridin-2-yloxy)-benzofuran-3-ylmethyl]-piperidine-4-carboxylic acid methylamide] are 90%, 88%, 2 nM and 19 nM.
For `NC(=O)C1CCN(Cc2cc3ccc(Oc4nc5ncccc5s4)cc3o2)CC1` [Example 116, 1-[6-(Thiazolo[4,5-b]pyridin-2-yloxy)-benzofuran-2-ylmethyl]-piperidine-4-carboxylic acid amide], in that order: 76%, 66%, 44 nM and 55 nM.
For `CC(=O)N[C@@H]1C[C@H]2CC[C@@H](C1)N2Cc1coc2cc(Oc3nc4ncccc4s3)ccc12` [Example 208, meso-exo-N-{8-[6-(Thiazolo[4,5-b]pyridin-2-yloxy)-benzofuran-3-ylmethyl]-8-aza-bicyclo[3.2.1]oct-3-yl}-acetamide], the inhibition at 30 mg/kg in assay [1] is 93%; in assay [4] (setting [7]), 92%. Besides, the IC50 in assay [2] is 1 nM; in assay [3] (setting [6]), 24 nM.

(Values after US8399465B2, “Compounds with two fused bicyclic heteroaryl moieties as modulators of leukotriene A4 hydrolase” (Janssen Pharmaceutica NV, priority 2009, dated 2013).)
